# According to patent US20080176862A1, “New Compounds 617” (ASTRAZENECA AB, priority 2006, published 2008):
# Structures can show the parent of a compound that is named as a salt.
# Molecular target: T1, human β-Secretase (soluble part, AA1-AA460; sBACE-Fc) (Homo sapiens, UniProt P56817)
# T1 construct: The soluble part of the human β-Secretase (AA1-AA460) was cloned into the ASP2-Fc10-1-IRES-GFP-neoK mammalian expression vector; made in house
# Test: TR-FRET assay
# Assay type: biochemical
# Settings: substrate (Europium)CEVNLDAEFK(Qsy7) 100 nM, pH 4.5, 15 min at RT; read-out: IC50 (nM) in TR-FRET assay
# Experimental: The enzyme used in the IGEN Cleavage-, Fluorescent-, TR-FRET- and BiaCore assays is described as follows:
# The soluble part of the human β-Secretase (AA1-AA460) was cloned into the ASP2-Fc10-1-IRES-GFP-neoK mammalian expression vector. The gene was fused to the Fc domain of IgG1 (affinity tag) and stably cloned into HEK 293 cells. Purified sBACE-Fc is stored in Tris buffer, pH 9.2 and has a purity of 95%.
# Enzyme was diluted to 6 μg/mL and the substrate (Europium)[…](Qsy7) to 200 nM in reaction buffer (NaAcetate, chaps, triton x-100, EDTA pH 4.5). Compounds were diluted to the desired concentration in dimethyl sulfoxide (final dimethyl sulfoxide concentration in assay is 5%). […] Enzyme (9 μL) and 1 μL of compound in dimethyl sulfoxide was added to the plate, mixed and pre-incubated for 10 min. Substrate (10 μL) was added and the reaction proceeded in the dark for 15 min at RT. The reaction was stopped with the addition of 7 μL NaAcetate, pH 9. The fluorescence of the product was measured on a Victor II plate reader with an excitation wavelength of 340 nm and an emission wavelength of 615 nm. […] The dimethyl sulfoxide control defined the 100% activity level and 0% activity was defined by exclusion of the enzyme (using reaction buffer instead).
# T1 sequence (P56817 22-460): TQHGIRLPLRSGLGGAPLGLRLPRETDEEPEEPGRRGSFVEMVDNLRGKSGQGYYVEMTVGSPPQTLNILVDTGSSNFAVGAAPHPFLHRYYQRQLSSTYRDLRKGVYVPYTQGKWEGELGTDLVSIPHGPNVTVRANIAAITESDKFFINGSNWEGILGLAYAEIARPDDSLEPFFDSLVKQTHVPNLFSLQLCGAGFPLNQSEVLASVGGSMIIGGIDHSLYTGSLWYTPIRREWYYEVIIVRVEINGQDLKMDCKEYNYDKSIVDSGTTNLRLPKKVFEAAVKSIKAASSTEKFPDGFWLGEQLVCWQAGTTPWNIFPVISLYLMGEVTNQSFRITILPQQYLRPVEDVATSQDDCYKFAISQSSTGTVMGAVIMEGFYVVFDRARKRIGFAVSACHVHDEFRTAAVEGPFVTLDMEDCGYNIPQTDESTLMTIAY
row,Compound,IC50
1,"COc1cncc(-c2cc(C3(c4ccc(OS(=O)(=O)C(F)(F)F)cc4)N=C(N)N(C)C3=O)ccc2F)c1 (stereo not drawn) [Example 148, 4-{2-Amino-4-[4-fluoro-3-(5-methoxypyridin-3-yl)phenyl]-1-methyl-5-oxo-4,5-dihydro-1H-imidazol-4-yl}phenyl trifluoromethanesulfonate 0.5 acetate]",40 nM
2,"COc1ccnc(-c2cc(C3(c4ccc(OS(C)(=O)=O)cc4)N=C(N)N(C)C3=O)ccc2F)n1 (stereo not drawn) [Example 6, 4-{2-Amino-4-[4-fluoro-3-(4-methoxypyrimidin-2-yl)phenyl]-1-methyl-5-oxo-4,5-dihydro-1H-imidazol-4-yl}phenyl methanesulfonate 0.25 acetate]",834 nM
3,"CN1C(=O)C(c2ccc(OC(F)F)cc2)(c2cccc(-c3cc(Cl)cc(OS(C)(=O)=O)c3)c2)N=C1N (stereo not drawn) [Example 64, 3′-{2-Amino-4-[4-(difluoromethoxy)phenyl]-1-methyl-5-oxo-4,5-dihydro-1H-imidazol-4-yl}-5-chlorobiphenyl-3-ylmethanesulfonate]",28 nM
4,"CN1C(=O)C(c2ccc(OS(C)(=O)=O)cc2)(c2ccc(F)c(-c3cnccc3Cl)c2)N=C1N (stereo not drawn) [Example 169, 4-{2-amino-4-[3-(4-chloropyridin-3-yl)-4-fluorophenyl]-1-methyl-5-oxo-4,5-dihydro-1H-imidazol-4-yl}phenyl methanesulfonate hydrochloride]",171 nM
5,"COc1cc(OS(C)(=O)=O)cc(-c2cccc(C3(c4ccc(OC)c(C(F)(F)F)c4)N=C(N)N(C)C3=O)c2)c1 (stereo not drawn) [Example 60, 3′-{2-Amino-4-[4-methoxy-3-(trifluoromethyl)phenyl]-1-methyl-5-oxo-4,5-dihydro-1H-imidazol-4-yl}-5-methoxybiphenyl-3-yl methanesulfonate]",25 nM
6,"CN1C(=O)C(c2ccc(OS(=O)(=O)C(F)(F)F)cc2)(c2ccc(F)c(-c3cccnc3)c2)N=C1N (stereo not drawn) [Example 141, 4-[2-Amino-4-(4-fluoro-3-pyridin-3-ylphenyl)-1-methyl-5-oxo-4,5-dihydro-1H-imidazol-4-yl]phenyl trifluoromethanesulfonate 0.5 acetate]",107 nM
7,"CN1C(=O)C(c2cccc(OS(C)(=O)=O)c2)(c2ccc(F)c(-c3cncc(F)c3)c2)N=C1N (stereo not drawn) [Example 87, 3-{2-Amino-4-[4-fluoro-3-(5-fluoropyridin-3-yl)phenyl]-1-methyl-5-oxo-4,5-dihydro-1H-imidazol-4-yl}phenylmethanesulfonate]",494 nM
8,"CC(C)S(=O)(=O)Oc1cccc(C2(c3ccc(F)c(-c4cccc(Cl)c4)c3)N=C(N)N(C)C2=O)c1 (stereo not drawn) [Example 106, 3-[2-Amino-4-(3′-chloro-6-fluorobiphenyl-3-yl)-1-methyl-5-oxo-4,5-dihydro-1H-imidazol-4-yl]phenyl propane-2-sulfonate]",363 nM
9,"CN1C(=O)C(c2ccc(OS(=O)(=O)C(F)(F)F)cc2)(c2ccc(F)c(-c3cncs3)c2)N=C1N (stereo not drawn) [Example 187, 4-{2-Amino-4-[4-fluoro-3-(1,3-thiazol-5-yl)phenyl]-1-methyl-5-oxo-4,5-dihydro-1H-imidazol-4-yl}phenyl trifluoromethanesulfonate hydrochloride]",459 nM
10,"CN1C(=O)C(c2cccc(OS(=O)(=O)c3cn(C)cn3)c2)(c2ccc(F)c(Br)c2)N=C1N (stereo not drawn) [Example 232, 3-[2-Amino-4-(3-bromo-4-fluorophenyl)-1-methyl-5-oxo-4,5-dihydro-1H-imidazol-4-yl]phenyl 1-methyl-1H-imidazole-4-sulfonate]",594 nM
11,"CC(C)S(=O)(=O)Oc1cccc(C2(c3ccc(F)c(-c4cccnc4)c3)N=C(N)N(C)C2=O)c1 (stereo not drawn) [Example 105, 3-[2-Amino-4-(4-fluoro-3-pyridin-3-ylphenyl)-1-methyl-5-oxo-4,5-dihydro-1H-imidazol-4-yl]phenylpropane-2-sulfonate]",343 nM
12,"CC(C)S(=O)(=O)Oc1cccc(C2(c3ccc(F)c(-c4cccnc4F)c3)N=C(N)N(C)C2=O)c1 (stereo not drawn) [Example 104, 3-{2-Amino-4-[4-fluoro-3-(2-fluoropyridin-3-yl)phenyl]-1-methyl-5-oxo-4,5-dihydro-1H-imidazol-4-yl}phenyl propane-2-sulfonate]",186 nM
